# Experiments:
# Type in all cases: in vivo
# Common Chickweed = test: post-emergence herbicide test; conditions: post-emergence, read-out: % plant inhibition
# Outline: (§1)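 Herbicidal effect measured as percent inhibition of each plant species after spraying. Application: atomizer, 170.3 kPa, 1870 L/Ha, about 0.4% emulsifier, to plants aged two to three weeks in greenhouse soil pans.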
# Cocklebur [1] = test: post-emergence herbicide test; conditions: Xanthium strumarium, post-emergence, read-out: % plant inhibition
# Outline: as §1
# Yellow Nutsedge [2] = test: post-emergence herbicide test; conditions: Cyperus, read-out: % plant inhibition
# Outline: as §1
# Bedstraw Catchweed = test: post-emergence herbicide test; conditions: Galium aparine, post-emergence, read-out: % plant inhibition
# Outline: as §1
# Barnyardgrass [3] = test: post-emergence herbicide test; conditions: Echinochloa crus-galli, post-emergence, read-out: % plant inhibition
# Outline: as §1
# Yellow Foxtail [4] = test: post-emergence herbicide test; conditions: Setaria, read-out: % plant inhibition
# Outline: as §1
# Morning Glory [5] = test: post-emergence herbicide test; conditions: Ipomoea, post-emergence, read-out: % plant inhibition
# Outline: as §1
# Soybean = test: pre-emergence herbicide test; conditions: Glycine max, pre-emergence, read-out: % plant inhibition
# Outline: (§2)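 Soil-applied pre-emergence screen: compound added to cover topsoil over sown seeds, pans held on greenhouse bench with subirrigation, % inhibition scored ~2 weeks later.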
# Cocklebur [6] = test: pre-emergence herbicide test; conditions: Xanthium strumarium, pre-emergence, read-out: % plant inhibition
# Outline: as §2
# Yellow Nutsedge [7] = test: pre-emergence herbicide test; conditions: Cyperus, read-out: % plant inhibition
# Outline: as §2
# Corn = test: pre-emergence herbicide test; conditions: Zea mays, pre-emergence, read-out: % plant inhibition
# Outline: as §2
# Barnyardgrass [8] = test: pre-emergence herbicide test; conditions: Echinochloa crus-galli, pre-emergence, read-out: % plant inhibition
# Outline: as §2
# Yellow Foxtail [9] = test: pre-emergence herbicide test; conditions: Setaria, read-out: % plant inhibition
# Outline: as §2
# Velvetleaf = test: pre-emergence herbicide test; conditions: Abutilon theophrasti, pre-emergence, read-out: % plant inhibition
# Outline: as §2
# Morning Glory [10] = test: pre-emergence herbicide test; conditions: Ipomoea, pre-emergence, read-out: % plant inhibition
# Outline: as §2
# Rice = test: pre-emergence herbicide test; conditions: Oryza sativa, read-out: % plant inhibition
# Outline: as §2
smiles,measurement,setting,value
COc1cc(-c2nn(C)c(C(F)(F)F)c2C)c(F)cc1[N+](=O)[O-] [Compound 36],inhibition at 7.95803 g/ha,Common Chickweed; 0.0071 lb/A,85%
same,inhibition at 40.0143 g/ha,Common Chickweed; 0.0357 lb/A,15%
same,inhibition at 200.072 g/ha,Common Chickweed; 0.1785 lb/A,35%
same,inhibition at 1000.92 g/ha,Common Chickweed; 0.893 lb/A,65%
same,inhibition at 7.95803 g/ha,Cocklebur [1]; 0.0071 lb/A,75%
same,inhibition at 40.0143 g/ha,Cocklebur [1]; 0.0357 lb/A,0%
same,inhibition at 200.072 g/ha,Cocklebur [1]; 0.1785 lb/A,60%
same,inhibition at 1000.92 g/ha,Cocklebur [1]; 0.893 lb/A,98%
same,inhibition at 7.95803 g/ha,Yellow Nutsedge [2]; 0.0071 lb/A,0%
same,inhibition at 40.0143 g/ha,Yellow Nutsedge [2]; 0.0357 lb/A,0%
same,inhibition at 200.072 g/ha,Yellow Nutsedge [2]; 0.1785 lb/A,0%
same,inhibition at 1000.92 g/ha,Yellow Nutsedge [2]; 0.893 lb/A,25%
same,inhibition at 7.95803 g/ha,Bedstraw Catchweed; 0.0071 lb/A,0%
same,inhibition at 40.0143 g/ha,Bedstraw Catchweed; 0.0357 lb/A,25%
same,inhibition at 200.072 g/ha,Bedstraw Catchweed; 0.1785 lb/A,50%
same,inhibition at 1000.92 g/ha,Bedstraw Catchweed; 0.893 lb/A,75%
same,inhibition at 7.95803 g/ha,Barnyardgrass [3]; 0.0071 lb/A,0%
same,inhibition at 40.0143 g/ha,Barnyardgrass [3]; 0.0357 lb/A,0%
same,inhibition at 200.072 g/ha,Barnyardgrass [3]; 0.1785 lb/A,45%
same,inhibition at 1000.92 g/ha,Barnyardgrass [3]; 0.893 lb/A,50%
same,inhibition at 7.95803 g/ha,Yellow Foxtail [4]; 0.0071 lb/A,0%
same,inhibition at 40.0143 g/ha,Yellow Foxtail [4]; 0.0357 lb/A,10%
same,inhibition at 200.072 g/ha,Yellow Foxtail [4]; 0.1785 lb/A,45%
same,inhibition at 1000.92 g/ha,Yellow Foxtail [4]; 0.893 lb/A,70%
same,inhibition at 7.95803 g/ha,Morning Glory [5]; 0.0071 lb/A,20%
same,inhibition at 40.0143 g/ha,Morning Glory [5]; 0.0357 lb/A,40%
same,inhibition at 200.072 g/ha,Morning Glory [5]; 0.1785 lb/A,85%
same,inhibition at 1000.92 g/ha,Morning Glory [5]; 0.893 lb/A,100%
same,inhibition at 7.95803 g/ha,Soybean; 0.0071 lb/A,0%
same,inhibition at 40.0143 g/ha,Soybean; 0.0357 lb/A,0%
same,inhibition at 200.072 g/ha,Soybean; 0.1785 lb/A,0%
same,inhibition at 1000.92 g/ha,Soybean; 0.893 lb/A,10%
same,inhibition at 7.95803 g/ha,Cocklebur [6]; 0.0071 lb/A,0%
same,inhibition at 40.0143 g/ha,Cocklebur [6]; 0.0357 lb/A,20%
same,inhibition at 200.072 g/ha,Cocklebur [6]; 0.1785 lb/A,0%
same,inhibition at 1000.92 g/ha,Cocklebur [6]; 0.893 lb/A,85%
same,inhibition at 7.95803 g/ha,Yellow Nutsedge [7]; 0.0071 lb/A,0%
same,inhibition at 40.0143 g/ha,Yellow Nutsedge [7]; 0.0357 lb/A,0%
same,inhibition at 200.072 g/ha,Yellow Nutsedge [7]; 0.1785 lb/A,0%
same,inhibition at 1000.92 g/ha,Yellow Nutsedge [7]; 0.893 lb/A,0%
same,inhibition at 7.95803 g/ha,Corn; 0.0071 lb/A,0%
same,inhibition at 40.0143 g/ha,Corn; 0.0357 lb/A,10%
same,inhibition at 200.072 g/ha,Corn; 0.1785 lb/A,55%
same,inhibition at 1000.92 g/ha,Corn; 0.893 lb/A,90%
same,inhibition at 7.95803 g/ha,Barnyardgrass [8]; 0.0071 lb/A,0%
same,inhibition at 40.0143 g/ha,Barnyardgrass [8]; 0.0357 lb/A,20%
same,inhibition at 200.072 g/ha,Barnyardgrass [8]; 0.1785 lb/A,90%
same,inhibition at 1000.92 g/ha,Barnyardgrass [8]; 0.893 lb/A,100%
same,inhibition at 7.95803 g/ha,Yellow Foxtail [9]; 0.0071 lb/A,0%
same,inhibition at 40.0143 g/ha,Yellow Foxtail [9]; 0.0357 lb/A,15%
same,inhibition at 200.072 g/ha,Yellow Foxtail [9]; 0.1785 lb/A,98%
same,inhibition at 1000.92 g/ha,Yellow Foxtail [9]; 0.893 lb/A,100%
same,inhibition at 7.95803 g/ha,Velvetleaf; 0.0071 lb/A,20%
same,inhibition at 40.0143 g/ha,Velvetleaf; 0.0357 lb/A,20%
same,inhibition at 200.072 g/ha,Velvetleaf; 0.1785 lb/A,98%
same,inhibition at 1000.92 g/ha,Velvetleaf; 0.893 lb/A,100%
same,inhibition at 7.95803 g/ha,Morning Glory [10]; 0.0071 lb/A,0%
same,inhibition at 40.0143 g/ha,Morning Glory [10]; 0.0357 lb/A,10%
same,inhibition at 200.072 g/ha,Morning Glory [10]; 0.1785 lb/A,60%
same,inhibition at 1000.92 g/ha,Morning Glory [10]; 0.893 lb/A,90%
same,inhibition at 7.95803 g/ha,Rice; 0.0071 lb/A,0%
same,inhibition at 40.0143 g/ha,Rice; 0.0357 lb/A,0%
same,inhibition at 200.072 g/ha,Rice; 0.1785 lb/A,0%
same,inhibition at 1000.92 g/ha,Rice; 0.893 lb/A,65%
